# Measurements published in ChEMBL document CHEMBL6115030, “Systematic All-Hydrocarbon Stapling Analysis for Cecropin A Generates a Potent and Stable Antimicrobial Peptide” (J Med Chem, 2025).
# Activity calls are given as the source filed them. The calls are words filed in the database; no cut-off is given here. Bridge positions count the residues as written; N and C are the ends. Square brackets hold non-standard residues; d marks the D form. Peptide text beside a SMILES is read from it. * marks the point of attachment. S5 = C=CCCC[C@](C)(N)C(=O)O; X1 = CC[C@H](C)CCCCC(=O)*; dDab = NCC[C@@H](N)C(=O)O; Dab = NCC[C@H](N)C(=O)O
# How the values were obtained:
# Staphylococcus aureus = experiment: Antibacterial activity against Staphylococcus aureus ATCC 25923 assessed as inhibition of bacterial growth measured after 24 hrs by broth microdilution method; assay type: functional
# Klebsiella pneumoniae [1] = experiment: Antibacterial activity against Klebsiella pneumoniae ATCC 13883 assessed as inhibition of bacterial growth measured after 24 hrs by broth microdilution method; assay type: functional
# Pseudomonas aeruginosa [2] = experiment: Antibacterial activity against Pseudomonas aeruginosa PAO1 assessed as inhibition of bacterial growth measured after 24 hrs by broth microdilution method; assay type: functional
# [3] = Hemolytic activity in human RBC assessed as hemolysis incubated for 1 hr by microplate reader; assay type: toxicity, cell-based, Erythrocyte; details: erythrocyte, 1 h
# Acinetobacter baumannii = experiment: Antibacterial activity against Pandrug-resistant Acinetobacter baumannii assessed as inhibition of bacterial growth measured after 24 hrs by broth microdilution method; assay type: functional
# Klebsiella pneumoniae [4] = experiment: Antibacterial activity against Carbapenem-resistant Klebsiella pneumoniae assessed as inhibition of bacterial growth measured after 24 hrs by broth microdilution method; assay type: functional
# Pseudomonas aeruginosa [5] = experiment: Antibacterial activity against Carbapenem-resistant Pseudomonas aeruginosa assessed as inhibition of bacterial growth measured after 24 hrs by broth microdilution method; assay type: functional
# Pseudomonas aeruginosa [6] = experiment: Antibacterial activity against Pandrug-resistant Pseudomonas aeruginosa assessed as inhibition of bacterial growth measured after 24 hrs by broth microdilution method; assay type: functional
# Salmonella typhimurium = experiment: Antibacterial activity against Salmonella typhimurium assessed as inhibition of bacterial growth measured after 24 hrs by broth microdilution method; assay type: functional, Salmonella enterica subsp. enterica serovar Typhimurium; details: Salmonella enterica
# Shigella flexneri = experiment: Antibacterial activity against Shigella flexneri 301 assessed as inhibition of bacterial growth measured after 24 hrs by broth microdilution method; assay type: functional
# Escherichia coli [7] = experiment: In vivo antibacterial activity against Escherichia coli intraperitoneally injected into C57BL/6 mouse peritonitis model assessed as reduction in bacterial load in blood at 2.5 mg/kg, ip measured after 48 hrs relative to control; assay type: functional, organism-based
# Escherichia coli [8] = experiment: In vivo antibacterial activity against Escherichia coli intraperitoneally injected into C57BL/6 mouse peritonitis model assessed as reduction in bacterial load in liver at 2.5 mg/kg, ip measured after 48 hrs relative to control; assay type: functional, organism-based
# Escherichia coli [9] = experiment: In vivo antibacterial activity against Escherichia coli intraperitoneally injected into C57BL/6 mouse peritonitis model assessed as reduction in bacterial load in spleen at 2.5 mg/kg, ip measured after 48 hrs relative to control; assay type: functional, organism-based
# Escherichia coli [10] = experiment: In vivo antibacterial activity against Escherichia coli intraperitoneally injected into C57BL/6 mouse peritonitis model assessed as reduction in bacterial load in lung at 2.5 mg/kg, ip measured after 48 hrs relative to control; assay type: functional, organism-based
# Escherichia coli [11] = experiment: In vivo antibacterial activity against Escherichia coli intraperitoneally injected into C57BL/6 mouse peritonitis model assessed as reduction in bacterial load in kidney at 2.5 mg/kg, ip measured after 48 hrs relative to control; assay type: functional, organism-based
# Mus musculus [12] = experiment: In vivo anti-inflammatory efficacy in Escherichia coli intraperitoneally injected into C57BL/6 mouse peritonitis model assessed as reduction in IL-1beta level in blood at 2.5 mg/kg, ip measured after 48 hrs by ELISA; assay type: functional, organism-based
# Mus musculus [13] = experiment: In vivo anti-inflammatory efficacy in Escherichia coli intraperitoneally injected into C57BL/6 mouse peritonitis model assessed as reduction in IL-6 level in blood at 2.5 mg/kg, ip measured after 48 hrs by ELISA; assay type: functional, organism-based
# Mus musculus [14] = experiment: In vivo anti-inflammatory efficacy in Escherichia coli intraperitoneally injected into C57BL/6 mouse peritonitis model assessed as reduction in TNF-alpha level in blood at 2.5 mg/kg, ip measured after 48 hrs by ELISA; assay type: functional, organism-based
Structure (SMILES),MIC (Staphylococcus aureus),MIC (Klebsiella pneumoniae [1]),MIC (Pseudomonas aeruginosa [2]),Activity [3],MIC (Acinetobacter baumannii),MIC (Klebsiella pneumoniae [4]),MIC (Pseudomonas aeruginosa [5]),MIC (Pseudomonas aeruginosa [6]),MIC (Salmonella typhimurium),MIC (Shigella flexneri),Activity (Escherichia coli [7]),Activity (Escherichia coli [8]),Activity (Escherichia coli [9]),Activity (Escherichia coli [10]),Activity (Escherichia coli [11]),Activity (Mus musculus [12]),Activity (Mus musculus [13]),Activity (Mus musculus [14])
CC[C@H](C)[C@H](NC(=O)CNC(=O)[C@H](CC(=O)O)NC(=O)[C@H](CCCNC(=N)N)NC(=O)[C@@H](NC(=O)[C@H](CC(N)=O)NC(=O)[C@H](CCC(N)=O)NC(=O)CNC(=O)[C@@H](NC(=O)[C@H](CCCCN)NC(=O)[C@H](CCC(=O)O)NC(=O)[C@@H](NC(=O)[C@H](CCCCN)NC(=O)[C@H](CCCCN)NC(=O)[C@H](Cc1ccccc1)NC(=O)[C@H](CC(C)C)NC(=O)[C@H](CCCCN)NC(=O)[C@H](Cc1c[nH]c2ccccc12)NC(=O)[C@H](CCCCN)NC(C)=O)[C@@H](C)CC)C(C)C)[C@@H](C)CC)C(=O)N[C@H](C(=O)N[C@@H](CCCCN)C(=O)N[C@@H](C)C(=O)NCC(=O)N1CCC[C@H]1C(=O)N[C@@]1(C)CCC/C=C\CCC[C@@](C)(C(=O)NCC(=O)N[C@@H](CCC(N)=O)C(=O)N[C@@H](C)C(=O)N[C@H](C(=O)N[C@@H](CCC(N)=O)C(=O)N[C@H](C(=O)N[C@@H](C)C(=O)N[C@@H](CCCCN)C(N)=O)[C@@H](C)CC)[C@@H](C)O)NC(=O)[C@H](C(C)C)NC(=O)[C@H](C)NC(=O)[C@H](C(C)C)NC1=O)[C@@H](C)CC (Ac-KWKLFKKIEKVGQNIRDGIIKAGP[S5]VAV[S5]GQATQIAK-NH2; staple (Z) 25-29),3.13 µM,3.13 µM,6.25 µM,Non-toxic,< 0.78 µM,6.25 µM,> 100 µM,25 µM,3.13 µM,1.56 µM,,,,,,,,
CC[C@H](C)[C@H](NC(=O)CNC(=O)[C@H](CC(=O)O)NC(=O)[C@H](CCCNC(=N)N)NC(=O)[C@@H](NC(=O)[C@H](CC(N)=O)NC(=O)[C@H](CCC(N)=O)NC(=O)CNC(=O)[C@@H](NC(=O)[C@H](CCCCN)NC(=O)[C@H](CCC(=O)O)NC(=O)[C@@H](NC(=O)[C@H](CCCCN)NC(=O)[C@H](CCCCN)NC(=O)[C@H](Cc1ccccc1)NC(=O)[C@H](CC(C)C)NC(=O)[C@H](CCCCN)NC(=O)[C@H](Cc1c[nH]c2ccccc12)NC(=O)[C@H](CCCCN)NC(C)=O)[C@@H](C)CC)C(C)C)[C@@H](C)CC)C(=O)N[C@H](C(=O)N[C@@H](CCCCN)C(=O)N[C@@H](C)C(=O)NCC(=O)N1CCC[C@H]1C(=O)N[C@@H](C)C(=O)N[C@H](C(=O)N[C@@H](C)C(=O)N[C@H](C(=O)N[C@H](C(=O)NCC(=O)N[C@@H](CCC(N)=O)C(=O)N[C@@]1(C)CCC/C=C/CCC[C@@](C)(C(=O)N[C@@H](CCCCN)C(N)=O)NC(=O)[C@H]([C@@H](C)CC)NC(=O)[C@H](CCC(N)=O)NC(=O)[C@H]([C@@H](C)O)NC1=O)C(C)C)C(C)C)C(C)C)[C@@H](C)CC (Ac-KWKLFKKIEKVGQNIRDGIIKAGPAVAVVGQ[S5]TQI[S5]K-NH2; staple (E) 32-36),1.56 µM,3.13 µM,6.25 µM,,< 0.78 µM,3.13 µM,> 100 µM,25 µM,3.13 µM,< 0.78 µM,,,,,,,,
CC[C@H](C)[C@H](NC(=O)CNC(=O)[C@H](CC(=O)O)NC(=O)[C@H](CCCNC(=N)N)NC(=O)[C@@H](NC(=O)[C@H](CC(N)=O)NC(=O)[C@H](CCC(N)=O)NC(=O)CNC(=O)[C@@H](NC(=O)[C@H](CCCCN)NC(=O)[C@H](CCC(=O)O)NC(=O)[C@@H](NC(=O)[C@H](CCCCN)NC(=O)[C@H](CCCCN)NC(=O)[C@H](Cc1ccccc1)NC(=O)[C@H](CC(C)C)NC(=O)[C@H](CCCCN)NC(=O)[C@H](Cc1c[nH]c2ccccc12)NC(=O)[C@H](CCCCN)NC(C)=O)[C@@H](C)CC)C(C)C)[C@@H](C)CC)C(=O)N[C@H](C(=O)N[C@@H](CCCCN)C(=O)N[C@@H](C)C(=O)NCC(=O)N1CCC[C@H]1C(=O)N[C@@H](C)C(=O)N[C@H](C(=O)N[C@@H](C)C(=O)N[C@@]1(C)CCC/C=C\CCC[C@@](C)(C(=O)N[C@H](C(=O)N[C@@H](CCC(N)=O)C(=O)N[C@H](C(=O)N[C@@H](C)C(=O)N[C@@H](CCCCN)C(N)=O)[C@@H](C)CC)[C@@H](C)O)NC(=O)[C@H](CCC(N)=O)NC(=O)CNC(=O)[C@H](C(C)C)NC1=O)C(C)C)[C@@H](C)CC (Ac-KWKLFKKIEKVGQNIRDGIIKAGPAVA[S5]VGQ[S5]TQIAK-NH2; staple (Z) 28-32),3.13 µM,3.13 µM,6.25 µM,,< 0.78 µM,6.25 µM,> 100 µM,25 µM,6.25 µM,1.56 µM,,,,,,,,
CC[C@H](C)[C@H](NC(=O)CNC(=O)[C@H](CC(=O)O)NC(=O)[C@H](CCCNC(=N)N)NC(=O)[C@@H](NC(=O)[C@H](CC(N)=O)NC(=O)[C@H](CCC(N)=O)NC(=O)CNC(=O)[C@@H](NC(=O)[C@H](CCCCN)NC(=O)[C@H](CCC(=O)O)NC(=O)[C@@H](NC(=O)[C@H](CCCCN)NC(=O)[C@H](CCCCN)NC(=O)[C@H](Cc1ccccc1)NC(=O)[C@H](CC(C)C)NC(=O)[C@H](CCCCN)NC(=O)[C@H](Cc1c[nH]c2ccccc12)NC(=O)[C@H](CCCCN)NC(C)=O)[C@@H](C)CC)C(C)C)[C@@H](C)CC)C(=O)N[C@H](C(=O)N[C@@H](CCCCN)C(=O)N[C@@H](C)C(=O)NCC(=O)N1CCC[C@H]1C(=O)N[C@@H](C)C(=O)N[C@H](C(=O)N[C@@H](C)C(=O)N[C@H](C(=O)N[C@@]1(C)CCC/C=C\CCC[C@@](C)(C(=O)N[C@@H](CCC(N)=O)C(=O)N[C@H](C(=O)N[C@@H](C)C(=O)N[C@@H](CCCCN)C(N)=O)[C@@H](C)CC)NC(=O)[C@H](C)NC(=O)[C@H](CCC(N)=O)NC(=O)CNC1=O)C(C)C)C(C)C)[C@@H](C)CC (Ac-KWKLFKKIEKVGQNIRDGIIKAGPAVAV[S5]GQA[S5]QIAK-NH2; staple (Z) 29-33),1.56 µM,1.56 µM,6.25 µM,,< 0.78 µM,3.13 µM,> 100 µM,25 µM,1.5 µM,< 0.78 µM,,,,,,,,
CC[C@H](C)[C@H](NC(=O)CNC(=O)[C@H](CC(=O)O)NC(=O)[C@H](CCCNC(=N)N)NC(=O)[C@@H](NC(=O)[C@H](CC(N)=O)NC(=O)[C@H](CCC(N)=O)NC(=O)CNC(=O)[C@@H](NC(=O)[C@H](CCCCN)NC(=O)[C@H](CCC(=O)O)NC(=O)[C@@H](NC(=O)[C@H](CCCCN)NC(=O)[C@H](CCCCN)NC(=O)[C@H](Cc1ccccc1)NC(=O)[C@H](CC(C)C)NC(=O)[C@H](CCCCN)NC(=O)[C@H](Cc1c[nH]c2ccccc12)NC(=O)[C@H](CCCCN)NC(C)=O)[C@@H](C)CC)C(C)C)[C@@H](C)CC)C(=O)N[C@H](C(=O)N[C@@H](CCCCN)C(=O)N[C@@H](C)C(=O)NCC(=O)N1CCC[C@H]1C(=O)N[C@@H](C)C(=O)N[C@@]1(C)CCC/C=C\CCC[C@@](C)(C(=O)N[C@@H](CCC(N)=O)C(=O)N[C@@H](C)C(=O)N[C@H](C(=O)N[C@@H](CCC(N)=O)C(=O)N[C@H](C(=O)N[C@@H](C)C(=O)N[C@@H](CCCCN)C(N)=O)[C@@H](C)CC)[C@@H](C)O)NC(=O)[C@H](C(C)C)NC(=O)[C@H](C(C)C)NC(=O)[C@H](C)NC1=O)[C@@H](C)CC (Ac-KWKLFKKIEKVGQNIRDGIIKAGPA[S5]AVV[S5]QATQIAK-NH2; staple (Z) 26-30),3.13 µM,3.13 µM,6.25 µM,Non-toxic,< 0.78 µM,12.5 µM,> 100 µM,25 µM,6.25 µM,1.56 µM,,,,,,,,
CC(C)CCCCC(=O)N[C@@H](CCN)C(=O)N[C@H](C(=O)N[C@@H](CCN)C(=O)N[C@H]1CCNC(=O)[C@H]([C@@H](C)O)NC(=O)[C@H](CCN)NC(=O)[C@H](CCN)NC(=O)[C@H](CC(C)C)NC(=O)[C@@H](Cc2ccccc2)NC(=O)[C@@H](CCN)NC1=O)[C@@H](C)O.CC[C@H](C)CCCCC(=O)N[C@@H](CCN)C(=O)N[C@H](C(=O)N[C@@H](CCN)C(=O)N[C@H]1CCNC(=O)[C@H]([C@@H](C)O)NC(=O)[C@H](CCN)NC(=O)[C@H](CCN)NC(=O)[C@H](CC(C)C)NC(=O)[C@@H](Cc2ccccc2)NC(=O)[C@@H](CCN)NC1=O)[C@@H](C)O (X1-[Dab]T[Dab][Dab][dDab][dF]L[Dab][Dab]T; lactam 4-C),,,,,,,,,,,Active,Active,Active,Active,Active,Active,Active,Active
